Legend:
CCK-1 receptors = target: T1, CCK-1 receptors (Rattus norvegicus, UniProt P30551); assay: Inhibition of binding of [125I]-BH-CCK-8 to isolated rat pancreatic acini; settings: for IC50: 30 minutes at 37° C., at least 3 experiments, read-out: IC50, inhibition of binding of [125I]-BH-CCK-8 to isolated rat pancreatic acini
T1 construct: The pancreatic acini obtained from the outbred male rat pancreas of the Sprague Dawley strain; from tissue; host or cells: isolated pancreatic acini of male Sprague Dawley rats
T1 sequence (P30551 1-444): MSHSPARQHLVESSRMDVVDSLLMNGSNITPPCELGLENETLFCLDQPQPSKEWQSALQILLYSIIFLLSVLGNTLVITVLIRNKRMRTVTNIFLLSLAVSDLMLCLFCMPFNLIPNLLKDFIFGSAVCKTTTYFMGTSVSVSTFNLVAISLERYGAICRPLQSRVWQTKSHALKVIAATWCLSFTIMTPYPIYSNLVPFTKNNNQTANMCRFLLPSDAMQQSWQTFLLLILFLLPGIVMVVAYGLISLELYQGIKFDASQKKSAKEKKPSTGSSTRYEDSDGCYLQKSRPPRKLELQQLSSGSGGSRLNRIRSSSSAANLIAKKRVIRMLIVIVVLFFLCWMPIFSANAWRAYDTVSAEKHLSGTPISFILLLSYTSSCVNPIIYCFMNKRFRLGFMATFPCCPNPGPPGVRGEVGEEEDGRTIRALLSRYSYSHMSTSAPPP
Experimental: The pancreatic acini obtained from the outbred male rat pancreas of the Sprague Dawley strain, were incubated in the presence of radioactive tracers and the compound studied for 30 minutes at 37° C. After having discarded the supernatant, the radioactivity associated with the pellet was determined with a liquid scintillator. The specific binding was determined as the difference between the binding in the absence and in the presence of CCK-8, 1.10^−6M. […] The values of IC50 reported were calculated with the […] of a set of at least 3 experiences for each compound studied.

CCK-2 receptor [1] = assay: Inhibition of the binding of [125I]-BH-CCK-8 to the cortical membrane of guinea pigs; set-up: species or system guinea pig; settings: IC50 CCK-2 (guinea pig cortex) / IC50 CCK-1 (rat pancreatic acini, Table 2)
Experimental: (§1) For this purpose binding tests were performed on cerebral cortex of male albino guinea pigs outbred from the Hartley strain, using as marked binder the [^125I]-BH-CCK-8 sulphate, according to the procedure described by Makovec F. [J. Med. Chem. 35, (1992),28].
(§2) The incubation of the cerebral membranes together with the radioactive tracers and the compounds under study was effected on multi-well plates for 120 minutes at 25° C. Each well contained membrane corresponding to about 0.5 mg of proteins/ml and 25 pM of marked binder in a total volume of 250 micro litres. The specific binding was determined as the difference between the binding in the absence and in the presence of CCK-8, 1.10^−6M. At the end of the incubation a rapid filtration of the plate was performed under vacuum and the radioactivity of the individual filters extracted from the wells was measured with a γ-emission counter. The results obtained are shown in Table 3, in which the tested compounds are indicated, the IC50 calculated with the regression method on a set of at least 3 tests for each compound studied and an index derived from the ratio of the affinity obtained for the two types of receptor CCK-2 and CCK-1.

CCK-2 receptor [2] = target: T2, CCK-2 receptor (Cavia porcellus, UniProt H0VZC5); assay: as above; set-up: species or system guinea pig; settings: 120 minutes at 25° C.; 25 pM marked binder; at least 3 tests
T2 construct: The incubation of the cerebral membranes together with the radioactive tracers and the compounds under study; from tissue; host or cells: cerebral cortex membranes of male albino Hartley guinea pigs
T2 sequence (H0VZC5 1-426): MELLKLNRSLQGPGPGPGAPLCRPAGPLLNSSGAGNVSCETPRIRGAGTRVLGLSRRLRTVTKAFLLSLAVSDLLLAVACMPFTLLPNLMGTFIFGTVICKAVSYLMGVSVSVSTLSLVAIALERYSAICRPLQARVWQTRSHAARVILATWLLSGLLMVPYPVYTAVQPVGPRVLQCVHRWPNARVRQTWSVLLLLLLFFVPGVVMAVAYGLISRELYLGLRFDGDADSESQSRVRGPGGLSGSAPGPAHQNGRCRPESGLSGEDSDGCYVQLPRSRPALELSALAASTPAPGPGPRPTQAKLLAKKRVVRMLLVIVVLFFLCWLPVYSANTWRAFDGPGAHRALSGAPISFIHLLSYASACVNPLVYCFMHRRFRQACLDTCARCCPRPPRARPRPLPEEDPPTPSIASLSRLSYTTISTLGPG
Experimental: as §1, §2

Row | IC50 (CCK-1 receptors) | SMILES | also measured
1 | 240 nM | O=C(Nc1ccccc1C(=O)NC(Cc1ccccc1)C(=O)O)c1cc2ccccc2[nH]1 (racemic) [Compound 1, 2 (R,S)-{2-[(1H-indol-2-carbonil)amino]-benzoilamino}-3-phnyl-propionic acid] | –
2 | 110 nM | O=C(Nc1ccccc1C(=O)N[C@H](Cc1ccccc1)C(=O)O)c1cc2ccccc2[nH]1 [Compound 2, 2 (R)-{2-[(1H-indol-2-carbonyl)amino]-benzoylamino}-3-phenyl-propionic acid] | –
3 | 7130 nM | O=C(Nc1ccccc1C(=O)N[C@@H](Cc1ccccc1)C(=O)O)c1cc2ccccc2[nH]1 [Compound 3, 2(S)-{2-[(1H-indol-2-carbonyl)amino]-benzoylamino}-3-phenyl-propionic acid] | –
4 | 410 nM | O=C(Nc1ccc(Cl)cc1C(=O)NC(Cc1ccccc1)C(=O)O)c1cc2ccccc2[nH]1 (stereo not shown) [Compound 4] | –
5 | 170 nM | Cn1c(C(=O)Nc2ccccc2C(=O)NC(Cc2ccccc2)C(=O)O)cc2ccccc21 (stereo not shown) [Compound 5] | –
6 | 60 nM | O=C(Nc1ccccc1C(=O)NC(Cc1ccccc1)C(=O)O)c1cc2cc(F)ccc2[nH]1 (stereo not shown) [Compound 6] | index derived from the ratio of the affinity obtained for the two types of receptor CCK-2 and CCK-1 (CCK-2 receptor [1]): 176.6; IC50 (CCK-2 receptor [2]): 10600 nM
7 | 160 nM | O=C(Nc1ccccc1C(=O)NC(Cc1ccccc1)C(=O)O)c1cc2ccc(F)cc2[nH]1 (stereo not shown) [Compound 7] | –
8 | 90 nM | O=C(Nc1ccccc1C(=O)NC(Cc1ccccc1)C(=O)O)c1cc2cccc(F)c2[nH]1 (stereo not shown) [Compound 8] | –
9 | 520 nM | O=C(Nc1ccccc1C(=O)NC(Cc1ccccc1)C(=O)O)c1cc2ccccc2o1 (stereo not shown) [Compound 9] | –
10 | 780 nM | O=C(Nc1ccccc1C(=O)NC(Cc1ccccc1)C(=O)O)c1cc2ccccc2s1 (stereo not shown) [Compound 10] | –
11 | 160 nM | Cc1ccccc1CC(NC(=O)c1ccccc1NC(=O)c1cc2ccccc2[nH]1)C(=O)O (stereo not shown) [Compound 11] | –
12 | 370 nM | Cc1ccc(CC(NC(=O)c2ccccc2NC(=O)c2cc3ccccc3[nH]2)C(=O)O)cc1 (stereo not shown) [Compound 12] | –
13 | 270 nM | O=C(Nc1ccccc1C(=O)NC(Cc1ccccc1Cl)C(=O)O)c1cc2ccccc2[nH]1 (stereo not shown) [Compound 13] | –
14 | 280 nM | O=C(Nc1ccccc1C(=O)NC(Cc1cccc(Cl)c1)C(=O)O)c1cc2ccccc2[nH]1 (stereo not shown) [Compound 14] | –
15 | 1410 nM | O=C(Nc1ccccc1C(=O)NC(Cc1c(Cl)cccc1Cl)C(=O)O)c1cc2ccccc2[nH]1 (stereo not shown) [Compound 15] | –
16 | 240 nM | COc1cccc(CC(NC(=O)c2ccccc2NC(=O)c2cc3ccccc3[nH]2)C(=O)O)c1 (stereo not shown) [Compound 16] | –
17 | 160 nM | O=C(Nc1ccccc1C(=O)NC(Cc1ccccc1[N+](=O)[O-])C(=O)O)c1cc2ccccc2[nH]1 (stereo not shown) [Compound 17] | –
18 | 430 nM | O=C(Nc1ccccc1C(=O)NC(Cc1ccc([N+](=O)[O-])cc1)C(=O)O)c1cc2ccccc2[nH]1 (stereo not shown) [Compound 18] | –
19 | 180 nM | O=C(Nc1ccccc1C(=O)NC(Cc1ccc(F)cc1)C(=O)O)c1cc2ccccc2[nH]1 (stereo not shown) [Compound 19] | –
20 | 90 nM | O=C(Nc1ccccc1C(=O)NC(CCCc1ccccc1)C(=O)O)c1cc2ccccc2[nH]1 (stereo not shown) [Compound 24] | –
21 | 30 nM | Cc1ccccc1CCC(NC(=O)c1ccccc1NC(=O)c1cc2ccccc2n1C)C(=O)O (stereo not shown) [Compound 27] | –
22 | 120 nM | O=C(Nc1ccccc1C(=O)NC(CCc1ccccc1[N+](=O)[O-])C(=O)O)c1cc2ccccc2[nH]1 (stereo not shown) [Compound 28] | –
23 | 120 nM | O=C(Nc1ccccc1C(=O)NC(CCc1ccc([N+](=O)[O-])cc1)C(=O)O)c1cc2ccccc2[nH]1 (stereo not shown) [Compound 29] | –

Row | IC50 (CCK-1 receptors) | SMILES | also measured
24 | 10 nM | COc1cccc(CCC(NC(=O)c2ccccc2NC(=O)c2cc3ccccc3[nH]2)C(=O)O)c1 (stereo not shown) [Compound 31] | index derived from the ratio of the affinity obtained for the two types of receptor CCK-2 and CCK-1 (CCK-2 receptor [1]): 340; IC50 (CCK-2 receptor [2]): 3400 nM
25 | 9 nM | COc1ccccc1CCC(NC(=O)c1ccccc1NC(=O)c1cc2cc(F)ccc2[nH]1)C(=O)O (stereo not shown) [Compound 32] | index derived from the ratio of the affinity obtained for the two types of receptor CCK-2 and CCK-1 (CCK-2 receptor [1]): 631.1; IC50 (CCK-2 receptor [2]): 5680 nM; affinity for the CCK-1 receptors of the pancreatic acini of rat, in words (CCK-1 receptors; summary of Table 2): nanomolar level
26 | 260 nM | O=C(Nc1ccccc1C(=O)NC(C(=O)O)c1ccccc1)c1cc2ccccc2[nH]1 (stereo not shown) [Compound 33] | –
27 | 1960 nM | CC(NC(=O)c1ccccc1NC(=O)c1cc2ccccc2[nH]1)C(=O)O (stereo not shown) [Compound 34] | –
28 | 3080 nM | CCC(NC(=O)c1ccccc1NC(=O)c1cc2ccccc2n1C)C(=O)O (stereo not shown) [Compound 35] | –
29 | 210 nM | CCCC(NC(=O)c1ccccc1NC(=O)c1cc2ccccc2n1C)C(=O)O (stereo not shown) [Compound 36] | –
30 | 170 nM | CCCCC(NC(=O)c1ccccc1NC(=O)c1cc2ccccc2n1C)C(=O)O (stereo not shown) [Compound 37] | –
31 | 10 nM | CCCCCC(NC(=O)c1ccccc1NC(=O)c1cc2ccccc2[nH]1)C(=O)O (stereo not shown) [Compound 38] | index derived from the ratio of the affinity obtained for the two types of receptor CCK-2 and CCK-1 (CCK-2 receptor [1]): >3000; IC50 (CCK-2 receptor [2]): > 30000 nM
32 | 20 nM | CCCCCCC(NC(=O)c1ccccc1NC(=O)c1cc2ccccc2[nH]1)C(=O)O (stereo not shown) [Compound 39] | index derived from the ratio of the affinity obtained for the two types of receptor CCK-2 and CCK-1 (CCK-2 receptor [1]): >1500; IC50 (CCK-2 receptor [2]): > 30000 nM
33 | 240 nM | CCCCCCCC(NC(=O)c1ccccc1NC(=O)c1cc2ccccc2[nH]1)C(=O)O (stereo not shown) [Compound 40] | –
34 | 200 nM | CC(C)C(NC(=O)c1ccccc1NC(=O)c1cc2ccccc2[nH]1)C(=O)O (stereo not shown) [Compound 41] | index derived from the ratio of the affinity obtained for the two types of receptor CCK-2 and CCK-1 (CCK-2 receptor [1]): 137; IC50 (CCK-2 receptor [2]): 27400 nM
35 | 60 nM | CC(C)CC(NC(=O)c1ccccc1NC(=O)c1cc2ccccc2[nH]1)C(=O)O (stereo not shown) [Compound 42] | –
36 | 80 nM | CC(C)CCC(NC(=O)c1ccccc1NC(=O)c1cc2ccccc2[nH]1)C(=O)O (stereo not shown) [Compound 43] | –
37 | 40 nM | CC(C)CCCC(NC(=O)c1ccccc1NC(=O)c1cc2ccccc2[nH]1)C(=O)O (stereo not shown) [Compound 44] | –
38 | 140 nM | CC(C)CCCCC(NC(=O)c1ccccc1NC(=O)c1cc2ccccc2[nH]1)C(=O)O (stereo not shown) [Compound 45] | –
39 | 30 nM | CCC(CC)CC(NC(=O)c1ccccc1NC(=O)c1cc2ccccc2[nH]1)C(=O)O (stereo not shown) [Compound 46] | index derived from the ratio of the affinity obtained for the two types of receptor CCK-2 and CCK-1 (CCK-2 receptor [1]): 89; IC50 (CCK-2 receptor [2]): 2670 nM
40 | 20 nM | O=C(Nc1ccccc1C(=O)NC(CC1CCCCC1)C(=O)O)c1cc2ccccc2[nH]1 (stereo not shown) [Compound 48] | index derived from the ratio of the affinity obtained for the two types of receptor CCK-2 and CCK-1 (CCK-2 receptor [1]): 61; IC50 (CCK-2 receptor [2]): 1220 nM
41 | 40 nM | O=C(Nc1ccccc1C(=O)NC(CCC1CCCCC1)C(=O)O)c1cc2ccccc2[nH]1 (stereo not shown) [Compound 49] | –
42 | 170 nM | O=C(Nc1ccccc1C(=O)NC(CCCC1CCCCC1)C(=O)O)c1cc2ccccc2[nH]1 (stereo not shown) [Compound 50] | –
43 | 40 nM | CSCCC(NC(=O)c1ccccc1NC(=O)c1cc2ccccc2[nH]1)C(=O)O (stereo not shown) [Compound 51] | –
44 | 620 nM | O=C(Nc1ccccc1C(=O)NC(CSc1ccccc1)C(=O)O)c1cc2ccccc2[nH]1 (stereo not shown) [Compound 52] | –
45 | 30 nM | O=C(Nc1ccccc1C(=O)NC(CSC12CC3CC(CC(C3)C1)C2)C(=O)O)c1cc2ccccc2[nH]1 (stereo not shown) [Compound 53] | –
46 | 1950 nM | O=C(NC(Cc1ccccc1)C(=O)O)c1ccccc1NC(=O)c1c[nH]c2ccccc12 (stereo not shown) [Compound 55] | –

Row | SMILES | IC50 (CCK-1 receptors) | also measured
47 | O=C(Nc1ccccc1C(=O)N[C@@H](CCc1ccccc1)C(=O)O)c1cc2ccccc2[nH]1 [Compound 22] | 190 nM | –
